Read-outs that look alike come from different tables or passages of the source.
What was measured:
[1] = target: T1, Gastrin receptor (gastric glands) (Cavia porcellus, UniProt H0VZC5); assay: Gastrin Receptor Binding in Guinea Pig Gastric Glands; parameters: species or system guinea pig (male Hartley)
T1 construct: The washed guinea pig gastric glands prepared as above were resuspended; from tissue; host or cells: guinea pig gastric mucosal glands (male Hartley)
T1 sequence (H0VZC5 1-426): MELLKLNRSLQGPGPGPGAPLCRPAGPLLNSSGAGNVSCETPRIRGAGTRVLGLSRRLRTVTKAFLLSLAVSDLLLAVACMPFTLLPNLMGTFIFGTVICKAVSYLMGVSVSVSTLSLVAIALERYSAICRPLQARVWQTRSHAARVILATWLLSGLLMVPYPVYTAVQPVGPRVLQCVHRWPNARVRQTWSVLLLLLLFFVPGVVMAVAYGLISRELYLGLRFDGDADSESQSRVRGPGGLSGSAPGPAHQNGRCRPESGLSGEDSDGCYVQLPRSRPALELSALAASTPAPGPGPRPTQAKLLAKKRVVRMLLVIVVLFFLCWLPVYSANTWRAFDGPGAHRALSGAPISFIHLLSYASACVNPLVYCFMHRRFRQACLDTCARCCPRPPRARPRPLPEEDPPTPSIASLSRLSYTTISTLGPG

CCK receptor (pancreas) = target: T2, CCK receptor (pancreas) (Rattus norvegicus, UniProt P30551); assay: CCK Receptor Binding (Pancreas): inhibition of ^125 I-CCK-33 binding; parameters: species or system Male Sprague-Dawley rats
T2 construct: The whole pancreas was dissected free of fat tissue and was homogenized; from tissue; host or cells: rat pancreas membranes (Sprague-Dawley)
T2 sequence (P30551 1-444): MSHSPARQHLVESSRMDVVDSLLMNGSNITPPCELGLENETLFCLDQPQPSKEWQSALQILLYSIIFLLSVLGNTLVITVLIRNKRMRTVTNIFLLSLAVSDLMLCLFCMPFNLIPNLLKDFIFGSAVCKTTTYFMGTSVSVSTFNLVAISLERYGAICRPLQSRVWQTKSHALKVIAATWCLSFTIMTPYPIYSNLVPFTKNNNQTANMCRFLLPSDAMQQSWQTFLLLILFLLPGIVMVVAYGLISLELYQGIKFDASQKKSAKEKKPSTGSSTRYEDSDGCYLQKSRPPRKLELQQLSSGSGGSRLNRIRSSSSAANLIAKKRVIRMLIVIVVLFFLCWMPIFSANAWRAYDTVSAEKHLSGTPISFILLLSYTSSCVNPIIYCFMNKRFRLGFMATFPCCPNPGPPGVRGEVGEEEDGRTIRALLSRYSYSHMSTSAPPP
Method in brief: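 Rat (male Sprague-Dawley) pancreatic membranes in 50 mM Tris HCl pH 7.7 with DTT, bacitracin, PMSF and o-phenanthroline; ^125I-Bolton Hunter-labelled CCK-33 as radioligand. Incubation 30 min at 37° C, separation by centrifugation, pellet gamma-counted; Scatchard analysis by diluting ^125I-CCK-33 with increasing CCK-33.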

[2] = target: T3, CCK receptor (brain, cerebral cortex) (Cavia porcellus, UniProt H0VZC5); assay: biochemical; format: binding, Male Hartley guinea pigs
T3 construct: Cerebral cortex was dissected and used as a receptor source; from tissue; host or cells: guinea pig cerebral cortex membranes (male Hartley)
T3 sequence (H0VZC5 1-426): T1 sequence (H0VZC5 1-426)
Method in brief: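 Guinea pig cerebral cortex homogenate as receptor source, with radiolabeled CCK-33 in HEPES buffer containing MgCl2, bacitracin, EGTA and 0.4% BSA. Incubation 2 h at 25°C; bound ligand pelleted by centrifugation and gamma-counted.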

[3] = ^125 I-gastrin, 25° C., 30 minutes, read-out: IC50 ^125 I-Gastrin Gastric Glands
[4] = rat pancreas membranes, ^125 I-CCK-33, 37° C., 30 minutes; read-out: IC50 ^125 I-CCK Pancreas
[5] = IC50 ^125 I-CCK Brain, guinea pig cerebral cortex, ^125 I-CCK-33, 25° C., 2 hours
[6] = read-out: IC50 ^125 I-CCK Brain; guinea pig cerebral cortex, ^125 I-CCK-33, 25° C., 2 hours
[7] = IC50 ^125 I-CCK Pancreas, rat pancreas membranes, ^125 I-CCK-33, 37° C., 30 minutes
[8] = guinea pig cerebral cortex, ^125 I-CCK-33, 25° C., 2 hours; read-out: IC50 ^125 I-CCK Brain

Row | SMILES | IC50 [1, 3] | IC50 (CCK receptor (pancreas); [4]) | IC50 [2, 5] | further results
1 | CN1C(=O)[C@H](NC(=O)c2ccc(Br)cc2)N=C(c2ccccc2)c2ccccc21 [Example 93, 3(R)-(+)-1,3-Dihydro-3-(4-bromobenzoylamino)-1-methyl-5-phenyl-2H-1,4-benzodiazepin-2-one] | 2000 nM | 700 nM | 2900 nM | 
2 | O=C(O)CCN1C(=O)[C@@H](Cc2c[nH]c3ccccc23)N=C(c2ccccc2F)c2ccccc21 [Example 103, (2-Carboxyethyl)-1,3-dihydro-5-(2-fluorophenyl)-3(R)-(3'-indolyl)methyl-2H-1,4-benzodiazepin-2-one] |  |  |  | IC50 ([1]; read-out: IC50 ^125 I-Gastrin Gastric Glands, 25° C., 30 minutes): 5800 nM; IC50 (CCK receptor (pancreas); read-out: IC50 ^125 I-CCK Pancreas; rat pancreas membranes, ^125 I-CCK-33, 37° C., 30 minutes): 1400 nM; IC50 [2, 6]: 11000 nM
3 | O=CNc1ccccc1C(=O)CC1N=C(c2ccccc2F)c2ccccc2NC1=O (stereo not drawn) [Example 104, 1,3-Dihydro-5-(2-fluorophenyl)-3-(2-formylaminobenzoylmethyl)-2H-1,4-benzodiazepin-2-one] | > 100000 nM |  |  | IC50 (CCK receptor (pancreas); [7]): 300 nM; IC50 [2, 8]: > 100000 nM
4 | O=C(NC1N=C(c2ccccc2)c2ccccc2NC1=O)C1Cc2ccccc2N1 (stereo not drawn) [Example 133, 1,3-Dihydro-3-(RS)-(2-indolinecarbonylamino)-5-phenyl-2-H-1,4-benzodiazepin-2-one] |  | 900 nM | > 40000 nM | IC50 ([1]; IC50 ^125 I-Gastrin Gastric Glands, 25° C., 30 minutes): 110000 nM
5 | CN1C(=O)[C@@H](NC(=O)c2ccccc2Cl)N=C(c2ccccc2)c2ccccc21 [Example 150, 3(S)-(-)-3-(2-Chlorobenzoylamino)-1,3-dihydro-1-methyl-5-phenyl-2H-1,4-benzodiazepin-2-one] | 130000 nM | 1700 nM |  | IC50 [2, 6]: 83000 nM
6 | CN1C(=O)[C@H](NC(=O)c2ccccc2Cl)N=C(c2ccccc2)c2ccccc21 [Example 151, 3(R)-(+)-3-(2-Chlorobenzoylamino)-1,3-dihydro-1-methyl-5-phenyl-2H-1,4-benzodiazepin-2-one] | 7500 nM | 11000 nM |  | IC50 [2, 6]: 22000 nM
7 | CN1C(=O)[C@@H](NC(=O)c2cccc(Br)c2)N=C(c2ccccc2F)c2ccccc21 [Example 154, 3(S)-(+)-3-(3-Bromobenzoylamino)-1,3-dihydro-5-(2-fluorophenyl)-1-methyl-2H-1,4-benzodiazepin-2-one] | 500 nM | 3.5 nM | 3500 nM | 
8 | CN1C(=O)[C@@H](NC(=O)c2ccc(Br)cc2)N=C(c2ccccc2F)c2ccccc21 [Example 156, 3(S)-(+)-3-(4-Bromobenzoylamino)-1,3-dihydro-5-(2-fluorophenyl)-1-methyl-2H-1,4-benzodiazepin-2-one] | 680 nM |  | 4000 nM | IC50 (CCK receptor (pancreas); [7]): 3.5 nM
9 | CN1C(=O)[C@@H](NC(=O)c2ccc(C(C)(C)C)cc2)N=C(c2ccccc2F)c2ccccc21 [Example 157, 3(S)-(+)-3-(4-t-Butylbenzoylamino)-1,3-dihydro-5-(2-fluorophenyl)-1-methyl-2H-1,4-benzodiazepin-2-one] | 2400 nM | 19 nM |  | IC50 [2, 8]: 8000 nM
10 | CN1C(=O)[C@@H](NC(=O)c2ccc(I)cc2)N=C(c2ccccc2F)c2ccccc21 [Example 159, 3(S)-(+)-1,3-Dihydro-5-(2-fluorophenyl)-3-(4-iodobenzoylamino)-1-methyl-2H-1,4-benzodiazepin-2-one] | 530 nM |  | 3000 nM | IC50 (CCK receptor (pancreas); [7]): 3.4 nM
11 | CN1C(=O)[C@@H](NC(=O)c2ccc(C#N)cc2)N=C(c2ccccc2F)c2ccccc21 [Example 162, 3(S)-(+)-3-(4-Cyanobenzoylamino)-1,3-dihydro-5-(2-fluorophenyl)-1-methyl-2H-1,4-benzodiazeoin-2-one] | 9000 nM | 43 nM | 31000 nM | 
12 | CN1C(=O)[C@H](NC(=O)c2cccc(I)c2)N=C(c2ccccc2F)c2ccccc21 [Example 168, 3(R)-(-)-1,3-Dihydro-5-(2-fluorophenyl)-3-(3-iodobenzoylamino)-1-methyl-2H-1,4-benzodiazepin-2-one] | 2000 nM | 15 nM |  | IC50 [2, 8]: 2400 nM

— US4820834A, “Benzodiazepine analogs” (priority 1987, dated 1989)
